Where a name gives a salt, the structure may show the parent alone.

For one test, the system named is SCG neurons. In words: cells. In kind it is cell-based, Sprague Dawley rats. The settings on record: Rattus norvegicus, Neuron, 48 h, read-out: IC(50), protection of SCG neurons from Taxol killing. On the procedure:
Taxol™ is regularly used in breast cancer chemotherapy. In cancer cells Taxol™ binds to the cyto-skeletal protein tubulin, thereby inhibiting normal microtubular assembly and inducing cellular apoptosis. Despite its potency as an anti-tumour agent, Taxol™ is also toxic to neurons, inducing dose limiting peripheral neuropathies. The addition of Taxol™ (100 ng/mL) to cultured SCG neurons induces the degradation or loss of upwards of 80% of the neurons.
FIG. 1 illustrates the protection provided by compound 1 (referred to here as AEG3482) against Taxol™ induced killing. PI Sprague Dawley rat SCG neurons were cultured and incubated with NGF (50 ng/mL) for 5 days.
Consider `CC1(C)CCC(C)(C)c2cc(-c3cn4nc(S(N)(=O)=O)sc4n3)ccc21` [Compound 56, 6-(5,5,8,8-Tetramethyl-5,6,7,8-tetrahydronaphthalen-2-yl)imidazo[2,1-b]-1,3,4-thiadiazole-2-sulfonamide], for which the IC50 was found to be 3 µM. Same read-out and setting: under `Cc1cc2c(cc1-c1cn3nc(S(N)(=O)=O)sc3n1)C(C)(C)CCC2(C)C` [Compound 57] stands 6 µM; under `NS(=O)(=O)c1nn2cc(-c3cc4ccc5cccc6ccc(c3)c4c56)nc2s1` [Compound 64, 6-pyrenylimidazo[2,1-b]-1,3,4-thiadiazole-2-sulfonamide], 10 µM.

Staying with this test, now noted: Rattus norvegicus, Neuron; Taxol™ (50 ng/mL), viability 48 hours later, MTS; read-out: IC(50), protection of SCG neurons from Taxol killing.
On to `COCCOCCOc1ccc(-c2cn3nc(S(N)(=O)=O)sc3n2)cc1` [Compound 30], for which the IC50 was determined as 10 µM.

As to `NS(=O)(=O)c1nn2cc(-c3ccc(OCCOCc4ccccc4)cc3)nc2s1` [Compound 31, 6-(4′-(2-Benzyloxyethoxy)phenyl)-imidazo[2,1-b]-1,3,4-thidiazole-2 sulfonamide], the IC50 was 10 µM.

Take `NS(=O)(=O)c1nn2cc(-c3ccc(OCCCOCc4ccccc4)cc3)nc2s1` [Compound 32]: the IC50 was 10 µM.

As for `Cc1ccc(C23CC4CC(CC(C4)C2)C3)cc1-c1cn2nc(S(N)(=O)=O)sc2n1` [Compound 51], the IC50 was 5 µM. On the same count and under the same terms, in the case of `NS(=O)(=O)c1nn2cc(-c3ccc(C(F)(F)F)cc3)nc2s1` [Compound 52, 6-(4-(Trifluoromethyl)phenyl)imidazo[2,1-b]-1,3,4-thiadiazole-2-sulfonamide] it was 3 µM; in that of `NS(=O)(=O)c1nn2cc(-c3cc(C(F)(F)F)cc(C(F)(F)F)c3)nc2s1` [Compound 54, 6-(3,5-di(trifluoromethyl)phenyl)imidazo[2,1-b]-1,3,4-thiadiazole-2-sulfonamide], 10 µM. Still for that read-out and setting: in the case of `CC(C)(C)c1cc(-c2cn3nc(S(N)(=O)=O)sc3n2)cc(C(C)(C)C)c1O` [Compound 55, 6-(3,4-Di-tert-butyl-4-hydroxyphenyl)imidazo[2,1-b]-1,3,4-thiadiazole-2-sulfonamide] it was 15 µM; in that of `CC(=O)N[C@@H](C)c1ccc(-c2cn3nc(S(N)(=O)=O)sc3n2)cc1` [Compound 58, 6-(4-(S-1-acetamidoethyl)phenyl)imidazo[2,1-b]-1,3,4-thiadiazole-2-sulfonamide], 30 µM. Still for that read-out and setting: under `NS(=O)(=O)c1nn2cc(C(F)(F)F)nc2s1` [Compound 59] stands 10 µM; under `NS(=O)(=O)c1nn2cc(C34CC5CC(CC(C5)C3)C4)nc2s1` [Compound 60, 6-(1-adamantyl)imidazo[2,1-b]-1,3,4-thiadiazole-2-sulfonamide], 25 µM; under `NS(=O)(=O)c1nn2cc(-c3cccc4ccccc34)nc2s1` [Compound 61, 6-(1-Naphthyl)imidazo[2,1-b]-1,3,4-thiadiazole-2-sulfonamide], 10 µM. Regarding `NS(=O)(=O)c1nn2cc(-c3ccc4ccccc4c3)nc2s1` [Compound 62, 6-(2-Naphthyl)imidazo[2,1-b]-1,3,4-thiadiazole-2-sulfonamide], the IC50 came to 15 µM. With `COc1ccc2ccc(-c3cn4nc(S(N)(=O)=O)sc4n3)cc2c1Br` [Compound 63, 6-(8-Bromo-7-methoxylnaphth-2-yl)imidazo[2,1-b]-1,3,4-thiadiazole-2-sulfonamide], the IC50 was determined as 7 µM. Still for that read-out and setting: under `Cc1c(-c2ccccc2)nc2sc(S(N)(=O)=O)nn12` [Compound 65, 5-Methyl-6-phenyl-imidazo[2,1-b]-1,3,4-thiadiazole-2-sulfonamide] stands 15 µM; under `NS(=O)(=O)c1nn2c(-c3ccccc3)c(-c3ccccc3)nc2s1` [Compound 66, 5,6-Diphenyl-imidazo[2,1-b]-1,3,4-thiadiazole-2-sulfonamide], 20 µM; under `NS(=O)(=O)c1nn2cc(-c3ccc(N4CCCCC4)cc3)nc2s1` [Compound 67, 6-(4-Piperidinophenyl)imidazo[2,1-b]-1,3,4-thiadiazole-2-sulfonamide], 10 µM. Still for that read-out and setting: in the case of `NS(=O)(=O)c1nn2cc(-c3ccc(N4CCOCC4)cc3)nc2s1` [Compound 68, 6-(4-Morpholinophenyl)imidazo[2,1-b]-1,3,4-thiadiazole-2-sulfonamide] it was 7 µM. `Nc1ccc(-c2cn3nc(S(N)(=O)=O)sc3n2)cc1` [Compound 70, 6-(4-Aminophenyl)imidazo[2,1-b]-1,3,4-thiadiazole-2-sulfonamide]: the IC50 turned out to be 22 µM. As for `NS(=O)(=O)c1nn2cc(-c3ccc(B(O)O)cc3)nc2s1` [Compound 71], the IC50 was above 30 µM. For the compound `NS(=O)(=O)c1nn2cc(-c3ccc(-c4c(F)c(F)c(F)c(F)c4F)cc3)nc2s1` [Compound 73, 6-(4-(2,3,4,5,6-tetrafluorophenyl)phenyl)imidazo[2,1-b]-1,3,4-thiadiazole-2-sulfonamide], the IC50 stood at 2 µM. On to `COC(=O)COc1ccc(-c2cn3nc(S(N)(=O)=O)sc3n2)cc1` [Compound 101], for which the IC50 is above 30 µM.

For the compound `NS(=O)(=O)c1nn2cc(-c3ccc(OCC(=O)O)cc3)nc2s1` [Compound 102], the IC50 was above 30 µM.

In the case of `COC(=O)COc1ccc(-c2nc3sc(S(N)(=O)=O)nn3c2C)cc1` [Compound 103], the IC50 was above 30 µM. Consider `Cc1ccc(-c2nc3sc(S(N)(=O)=O)nn3c2C)cc1Cl` [Compound 104, 6-(3-chloro-4-methylphenyl)-5-methylimidazo[2,1-b]-1,3,4-thiadiazole-2-sulfonamide], for which the IC50 came to 7 µM. Same read-out and setting: in the case of `NS(=O)(=O)c1nn2cc(-c3ccncc3)nc2s1` [Compound 107, 6-(4-Pyridyl)imidazo[2,1-b]-1,3,4-thiadiazole-2-sulfonamide] it was 20 µM. On the same count and under the same terms, under `NS(=O)(=O)c1nn2cc(-c3cnccn3)nc2s1` [Compound 108] stands 5 µM; under `NS(=O)(=O)c1nn2cc(-c3ccc4c(c3)NC(=O)CO4)nc2s1` [Compound 110], above 30 µM; under `NS(=O)(=O)c1nn2cc(-c3cccs3)nc2s1` [Compound 112, 6-(2-Thiophenyl)-imidazo[2,1-b]-1,3,4-thiadiazole-2-sulfonamide], 5 µM. Consider `NS(=O)(=O)c1nn2cc(-c3ccc(-c4ccccc4)s3)nc2s1` [Compound 113, 6-(5-Phenylthiophen-2-yl)-imidazo[2,1-b]-1,3,4-thiadiazole-2-sulfonamide], for which the IC50 is 7 µM.

Regarding `NS(=O)(=O)c1nn2cc(-c3ccc([N+](=O)[O-])s3)nc2s1` [Compound 114, 6-(5-Nitro-2-thiophenyl)-imidazo[2,1-b]-1,3,4-thiadiazole-2-sulfonamide hydrobromide], the IC50 is 7 µM. With `Cc1c(-c2cn3nc(S(N)(=O)=O)sc3n2)sc2ccccc12` [Compound 115, 6-(3-Methylbenzo[b]thiophen-2-yl)imidazo[2,1-b]-1,3,4-thiadiazole-2-sulfonamide], the IC50 stood at 7 µM. For the compound `NS(=O)(=O)c1nn2cc(-c3csc4ccccc34)nc2s1` [Compound 116, 6-(Benzo[b]thiophen-3-yl)imidazo[2,1-b]-1,3,4-thiadiazole-2-sulfonamide], the IC50 was found to be 7 µM. Still for that read-out and setting: under `NS(=O)(=O)c1nn2cc(-c3cc(-c4ccccc4)no3)nc2s1` [Compound 117, 6-(3-Phenylisoxazol-5-yl)imidazo[2,1-b]-1,3,4-thiadiazole-2-sulfonamide] stands 3 µM; under `Cc1onc(-c2ccccc2)c1-c1cn2nc(S(N)(=O)=O)sc2n1` [Compound 118, 6-(5-Methyl-3-phenylisoxazol-4-yl)imidazo[2,1-b]-1,3,4-thiadiazole-2-sulfonamide], 17 µM; under `Cc1c(-c2cn3nc(S(N)(=O)=O)sc3n2)cnn1-c1ccccc1` [Compound 120, 6-(5-methyl-1-phenyl-1H-pyrazol-4-yl)imidazo[2,1-b]-1,3,4-thiadiazole-2-sulfonamide], 7 µM. Turning to `NS(=O)(=O)c1nn2cc(-c3nccs3)nc2s1` [Compound 121, 6-(Thiaxol-2-yl)imidazo[2,1-b]-1,3,4-thiadiazole-2-sulfonamide], the IC50 turned out to be 2 µM. On the same count and under the same terms, in the case of `Cc1nc(C)c(-c2cn3nc(S(N)(=O)=O)sc3n2)s1` [Compound 122, 6-(2,4-Thiaxol-5-yl)imidazo[2,1-b]-1,3,4-thiadiazole-2-sulfonamide] it was 8 µM; in that of `NS(=O)(=O)c1nn2c(Cl)c(-c3ccccc3)nc2s1` [Compound 123, 5-Chloro-6-phenyl-imidazo[2,1-b]-1,3,4-thiadiazole-sulfonamide], above 30 µM; in that of `NS(=O)(=O)c1nn2c(Br)c(-c3ccccc3)nc2s1` [Compound 124, 5-Bromo-6-phenyl-imidazo[2,1-b]-1,3,4-thiadiazole-2-sulfonamide hydrobromide], 3 µM. Consider `NS(=O)(=O)c1nn2c(Br)c(-c3ccccn3)nc2s1` [Compound 125, 5-Bromo-6-(2-pyridyl)imidazo[2,1-b]-1,3,4-thiadiazole-2-sulfonamide hydrobromide], for which the IC50 came out at 3 µM. For the compound `NS(=O)(=O)c1nn2c(Br)c(-c3ccc(Br)cc3)nc2s1` [Compound 128, 5-Bromo-6-(4-bromophenyl)imidazo[2,1-b]-1,3,4-thiadiazole-2-sulfonamide hydrobromide], the IC50 is 2 µM. With `COc1cccc(-c2nc3sc(S(N)(=O)=O)nn3c2Br)c1Br` [Compound 129, 5-Bromo-6-(2-bromo3-methoxyphenyl)imidazo[2,1-b]-1,3,4-thiadiazole-2-sulfonamide hydrobromide], the IC50 turned out to be 7 µM. Still for that read-out and setting: in the case of `NS(=O)(=O)c1nn2c(Br)c(-c3ccc4ccccc4c3)nc2s1` [Compound 130, 5-Bromo-6-(2-naphthyl)imidazo[2,1-b]-1,3,4-thiadiazole-2-sulfonamide hydrobromide] it was 2 µM.
